Results as given in the supplement of paper PMC10307832.

Key:
Assay in all cases: relative viability (nuclei count vs DMSO), 5 days (fraction); higher = more cells survive
[1] = compound: O=C(CCCCCCNC(=O)c1cnc(N(c2ccccc2)c2ccccc2)nc1)NO [Ricolinostat] + CC(=O)Nc1cccc(-n2c(=O)n(C3CC3)c(=O)c3c(Nc4ccc(I)cc4F)n(C)c(=O)c(C)c32)c1 [Trametinib] (partner 0.02 µM)
In short: (§1)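 One day after seeding in 1536-well plates, lung cancer cell lines were dosed by pin tool. Dosing was either single-drug or a fixed anchor-drug dose plus five library-drug doses (not always all listed) in √10 steps. After 5 days, nuclei were stained in one fix-and-stain step and counted on 4× images, and relative viability is the nuclei count of treated wells over that of vehicle wells, given as the median of duplicate plates.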

[2] = compound: C1=CC=C(C(=C1)C2=CC=C(C=C2)C3=CSC4=C3C(=C(C(=O)N4)C#N)O)O + CC(C)C[C@H](NC(=O)[C@H](Cc1ccccc1)NC(=O)c1cnccn1)B(O)O [Bortezomib] (partner 0.002 µM)
In short: as §1

[3] = compound: C1=CC=C(C(=C1)C2=CC=C(C=C2)C3=CSC4=C3C(=C(C(=O)N4)C#N)O)O + CCNC(=O)c1noc(-c2cc(C(C)C)c(O)cc2O)c1-c1ccc(CN2CCOCC2)cc1 [Luminespib] (partner 0.01 µM)
In short: as §1

[4] = compound: C1=CC=C(C(=C1)C2=CC=C(C=C2)C3=CSC4=C3C(=C(C(=O)N4)C#N)O)O + CS(=O)(=O)N1CCN(Cc2cc3nc(-c4cccc5[nH]ncc45)nc(N4CCOCC4)c3s2)CC1 [Pictilisib] (partner 1 µM)
In short: as §1

Cell Line	relative viability ([1]; first compound 0.08 µM)	relative viability ([1]; first compound 0.253 µM)	relative viability ([1]; first compound 0.8 µM)	relative viability ([1]; first compound 2.53 µM)	relative viability ([2]; first compound 0.08 µM)	relative viability ([2]; first compound 0.253 µM)	relative viability ([2]; first compound 0.8 µM)	relative viability ([2]; first compound 2.53 µM)	relative viability ([2]; first compound 8 µM)	relative viability ([3]; first compound 0.253 µM)	relative viability ([3]; first compound 0.8 µM)	relative viability ([3]; first compound 2.53 µM)	relative viability ([3]; first compound 8 µM)	relative viability ([4]; first compound 0.08 µM)	relative viability ([4]; first compound 0.253 µM)	relative viability ([4]; first compound 0.8 µM)	relative viability ([4]; first compound 2.53 µM)	relative viability ([4]; first compound 8 µM)	relative viability ([3]; first compound 0.08 µM)
NCI-H23	0.445	0.414	0.428	0.406	0.884	1.11	1.19	1.07	0.558	0.19	0.212	0.197	0.211	0.439	0.462	0.563	0.458	0.396	
NCI-H596	0.818	0.751	0.785	0.904	0.715	1.63	1.2	0.926	0.933	0.941	0.943	1.15	0.904	0.178	0.407	0.395	0.373	0.378	0.696
NCI-H2087	0.211	0.188	0.173	0.233	0.609	1	0.796	0.833	0.899	0.162	0.222	0.172	0.204	0.783	0.892	0.956	0.848	0.772	0.165
NCI-H520		0.735	0.621	0.613	0.496	0.494	0.903	0.506	0.492	0.225	0.218	0.246	0.21	0.185	0.277	0.323	0.319	0.295	0.261
NCI-H727	0.383	0.416	0.412	0.355	0.643	1.18	0.986	0.714	0.747	0.356	0.43	0.487	0.341	0.376	0.407	0.427	0.353	0.308	0.451
NCI-H1734	0.582	0.629	0.682	0.785	0.852	0.787	1.04	0.924	0.545	0.245	0.196	0.214	0.208	0.46	0.485	0.444	0.477	0.493	0.16
NCI-H1993	0.5	0.583	0.564	0.665	1.03	1.08	1.08	1.14	0.979	0.715	0.7	0.763	0.646	0.901	1.01	0.762	0.902	0.828	0.625
HCC-827	0.49	0.527	0.581	0.584	0.967	1.05	1	1.08	1.07	0.845	0.573	0.7	0.43	1.11	1.05	0.819	0.996	0.986	0.639
NCI-H1437	0.458	0.502	0.392	0.356	0.539	0.665	0.603	0.406	0.322	1.34	1.17	1.17	0.902	0.42	0.475	0.39	0.459	0.494	1.01
EPLC-272H		0.284	0.313	0.26		0.973	0.852	0.858	0.652	0.282	0.247	0.223	0.282		0.251	0.264	0.299	0.292	0.279
NCI-H2126	0.531	0.548	0.564	0.52	1.06	1.13	1.18	1.21	1.22	0.895	0.89	0.948	0.928	0.455	0.498	0.478	0.515	0.503	0.894
NCI-H1666	0.872	0.869	0.84	0.879	0.849	0.838	0.693	0.904	0.782	1.05	0.949	1.01	1.01	0.321	0.572	0.404	0.29	0.405	0.942
RERF-LC-KJ	0.869	0.836	0.805	0.715	0.995	1.1	1.22	1.1	1.05	1.37	1.44	1.17	0.843	0.576	0.538	0.567	0.466	0.493	1.34
ChaGo-K-1	0.894	0.865	0.848	0.802	0.658	0.955	0.957	1.21	0.954	0.628	0.684	0.597	0.604	0.387	0.634	0.554	0.747	0.829	0.706
